One assay relates to Human osteosarcoma cells. As to the kind of experiment: Collagen enhancement by Sirius Red staining. In kind it is cell-based. The following applies: at 1.25 ppm, 48 hrs, vs untreated cells. The procedure:
Collagen enhancement was determined by using Sirius Red stain that binds with a greater specificity to Collagen type I and Collagen type III of the extracellular matrix. The stain bound to the collagen is dissolved and the optical density (OD) is measured spectrophotometrically using a Fluostar optima microtiter plate reader at 544 nm. The OD of the stain bound to collagen is directly proportional to the collagen content in the cells.
Human osteosarcoma cells from human bone were used for collagen enhancement studies. The cells were seeded with a seeding density of 10000 cells per well of a 24 well plate. Confluent monolayers of cells were initially treated with varying non cytotoxic concentrations of Oleanoyl peptide and vehicle (control) in the culture medium. For each concentration, 4 replicates were maintained and the analysis was performed twice such that the ‘n’ value is 8. After sample treatment, the cells were incubated in a CO2 incubator for 48 hrs. The cells were then developed by Sirius red staining technique to analyze the collagen enhancement. The cells were washed extensively with PBS. The cells were fixed using Bouin's fluid containing 1.3% picric acid, 35% formaldehyde and glacial acetic acid in 15:5:1 ration by incubating with 1 ml of Bouin's fluid per well for 1 hr at RT. The fixative is then removed by suction with micropipette and the cells were washed under running tap water for 15 minutes. After air drying the culture plate, the cells were stained using 0.1% Sirius red stain in 1.3% picric acid. 1 ml per well Sirius red stain was added and the cells were incubated for 1 hr under mild shaking of 70 RPM at RT in Orbitek Shaker. The stain was then removed by suction and the cells were extensively washed with 0.01N HCl to remove unbound dye. The dye bound to collagen was then dissolved in 0.2 ml of 0.1N NaOH per well for 30 minutes under mild shaking of 70 RPM in Orbitek Shaker at RT. The dye was then transferred to 96 well microplate and the OD was read at 544 nm in Fluostar Optima microplate reader.
The percentage enhancement in collagen with respect to the untreated cells considering the OD of untreated cells as optimal under normal conditions is calculated as follows, % enhancement in […]=[(100/C)×T]−100 Where C=absorbance due to collagen in untreated cells
T=absorbance due to collagen in sample treated cells

A further assay relates to TNF α. Briefly: TNF α inhibition in LPS-stimulated human whole blood (ELISA). In kind it is cell-based. The settings on record: human whole blood, LPS 1 ng/mL. An excerpt:
For TNF α inhibitory study, human whole blood is used. In whole blood assay, monocytes appear to be the main source of TNF-α on lipopolysaccharide (LPS) stimulation. Monocyte and macrophages are a major source of TNF-α in addition to other cell types like eosinophils, mast cells, peripheral lymphocytes and granulocytes. The activation of inflammatory cells is influenced by the intracellular levels of c-AMP which are regulated by the phosphodiesterase isoenzyme. […] After stimulation, the assay employs the quantitative sandwich enzyme immunoassay technique. A monoclonal antibody specific for TNF-α has been pre-coated onto a microplate. TNF-α present in the sample is bound by the immobilized antibody. After washing away any unbound substances, an enzyme-linked polyclonal antibody specific for TNF-α is added. Following a wash to remove any unbound antibody-enzyme reagent, a substrate solution is added to the wells and colour develops in proportion to the amount of TNF-α bound in the initial step. The colour development is stopped and the intensity of the colour is directly proportional to the TNF-α content.
Heparinized blood from healthy donors was diluted 1:3 in RPMI 1640 culture medium containing 10% FBS. […] 0.1% DMSO was used as vehicle for water insoluble samples. After pre-incubation, the whole blood cells were stimulated by 1 ng/mL LPS for the release of TNF α from the macrophages by incubating for 5 hr at 37° C. in an incubator with 5% COP. The samples were then centrifuged at 3000 g for 3 minutes at 4° C. and the supernatant was assayed for TNF α content by using the TNF α Elisa kit. 200 μL of supernatant from all the tubes was transferred into microtiter plate in respective wells (Pre-coated mouse monoclonal antibody microplate) followed by the addition of 50 μL of assay diluents in all the wells. After incubation for 2 hr at room temperature, the wells were washed thoroughly with wash buffer provided and then 200 μL of conjugate was added to each well. The plate was incubated for 2 hr at room temperature. After washing again, 200 μL of substrate solution was added to each well and incubated for 20 minutes at room temperature. 50 μL of Stop Solution to each well which will cause the colour change in the wells from blue to yellow was added. The optical density was read at 450 nm which is directly proportional to TNF α content and the percentage of inhibition of TNF α content on treatment with sample was calculated with respect to that of the untreated cells.
T=absorbance due to TNF α in the presence of inhibitor

Another assay has as its system human skin. Briefly: Effect of Oleanoyl peptide cream on human facial skin. In kind it is in vivo. The settings on record: cream with Oleanoyl peptide (0.01%), twice daily, three weeks, photographs. The procedure: To study the potential effect of Oleanoyl peptide on human skin, candidates were selected in-house whose age ranging from about 30 to 60 with moderate to severe signs of aging. A topical composition comprising Oleanoyl peptide (0.01%) was prepared as a cream for application on the skin.
The cream containing Oleanoyl peptide was applied on the affected areas of facial skin of the candidates twice daily for a continuous period of three weeks. Photographs of the candidates were taken before and after three weeks of application of the cream.

Consider one molecule from patent US8987212B2, “Oleanoyl peptide composition and method of treating skin aging” (priority 2007, dated 2015).

Where a SMILES comes first, the peptide text is derived from it. The star is where a group is joined. X1 = CC1(C)CC[C@]2(C(=O)*)CC[C@]3(C)C(=CCC4[C@@]5(C)CC[C@H](O)C(C)(C)C5CC[C@]43C)C2C1

On to `C[C@@H](O)[C@H](NC(=O)[C@H](CCCCN)NC(=O)[C@]12CCC(C)(C)CC1C1=CCC3[C@@]4(C)CC[C@H](O)C(C)(C)C4CC[C@@]3(C)[C@]1(C)CC2)C(=O)N[C@H](C(=O)N[C@@H](CCCCN)C(=O)N[C@@H](CO)C(=O)O)[C@@H](C)O` (stereo partly drawn) [Oleanoyl peptide, Oleanoyl-Lys-Thr-Thr-Lys-Ser-OH] (X1-KTTKS-OH), for which the enhancement in collagen in the assay with Human osteosarcoma cells was 17%. Also, the “TNF α inhibition (IC50 μg/ml)” value in the assay with TNF α was determined as 21 µg/mL. Besides, in the assay with human skin, the “effect on dark circles under the eye” value is recorded as “reduction of dark circles under the eye”, the effect on hyperpigmentation entry is “reduction in hyperpigmentation”, the “effect on skin thickness” value is given as “improvement in skin thickness” and the effect on wrinkles result is reported as “wrinkles are softened”.
